Results taken from patent US20260042755A1, “GPR6 INVERSE AGONISTS” (MapLight Therapeutics, Inc., priority 2022, published 2026).

Legend:
[1] = target: T1, GPR6 (Homo sapiens, UniProt P46095); assay: GPR6 antagonist functional cAMP assay (LANCE Ultra cAMP TR-FRET, CHO cells stably expressing GPR6); format: cell-based
T1 construct: expressed in transfected cells; host or cells: CHO cells
How it was run: (§1)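 10,000 cells/well; KRB buffer + 0.1% BSA + 150 μM Ro 20-1724; cpd 45 min, 37 °C, 0.1% DMSO; TR-FRET cAMP, 665 nm; 4-PL fit, normalized to DMSO (0.1%) and reference (100%) → IC50.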

[2] = target: T2, GPR3 (Homo sapiens, UniProt P46089); assay: GPR3 antagonist functional cAMP assay (LANCE Ultra cAMP TR-FRET, CHO cells stably expressing GPR3); format: cell-based
T2 construct: expressed in transfected cells; host or cells: CHO cells
T2 sequence (P46089 whole entry, species assumed): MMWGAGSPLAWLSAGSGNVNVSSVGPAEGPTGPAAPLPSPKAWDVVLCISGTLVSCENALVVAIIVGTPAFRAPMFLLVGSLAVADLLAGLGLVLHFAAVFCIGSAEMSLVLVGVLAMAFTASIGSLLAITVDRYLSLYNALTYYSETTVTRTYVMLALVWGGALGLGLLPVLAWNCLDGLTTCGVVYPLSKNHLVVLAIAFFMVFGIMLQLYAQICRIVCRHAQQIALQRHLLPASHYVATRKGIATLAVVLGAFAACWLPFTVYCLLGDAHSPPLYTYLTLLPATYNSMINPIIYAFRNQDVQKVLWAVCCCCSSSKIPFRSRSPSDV
How it was run: as §1

[3] = CHO cells stably expressing GPR6, cAMP assay (Example 24)
[4] = CHO cells stably expressing GPR3, cAMP assay (Example 24)
[5] = procedure as described in Example 24

T1 sequence (P46095 whole entry): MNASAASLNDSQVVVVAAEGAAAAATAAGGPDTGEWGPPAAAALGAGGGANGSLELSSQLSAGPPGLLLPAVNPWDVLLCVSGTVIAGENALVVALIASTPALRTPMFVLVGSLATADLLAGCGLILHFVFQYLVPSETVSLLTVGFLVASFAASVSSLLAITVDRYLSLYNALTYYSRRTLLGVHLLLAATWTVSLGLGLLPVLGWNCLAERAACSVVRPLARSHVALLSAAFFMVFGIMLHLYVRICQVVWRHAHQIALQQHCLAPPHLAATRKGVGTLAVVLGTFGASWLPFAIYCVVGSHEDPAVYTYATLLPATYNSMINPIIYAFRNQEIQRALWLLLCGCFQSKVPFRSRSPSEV

Row | IC50 [1, 3] [nM] | IC50 [2, 4] [nM] | SMILES | other results
1 | 100 to 1000 | 1000 to 30000 | CCn1cc(-c2nc3c(nc2N2CCC(Oc4ccc(F)cc4F)CC2)CCN(S(N)(=O)=O)C3)cn1 [Compound 478, 2-(4-(2,4-difluorophenoxy)piperidin-1-yl)-3-(1-ethyl-1H-pyrazol-4-yl)-7,8-dihydropyrido[3,4-b]pyrazine-6(5H)-sulfonamide] | 
2 | 1000 to 30000 | 1000 to 30000 | CC(O)c1cc2nc(N3CCC(Oc4ccc(F)cc4F)CC3)c(-c3cnn(C)c3)nc2cn1 (stereo not shown) [Compound 467, 1-{2-[4-(2,4-difluorophenoxy)piperidin-1-yl]-3-(1-methyl-1H-pyrazol-4-yl)pyrido[3,4-b]pyrazin-7-yl}ethan-1-ol] | 

The remaining lines, values behind:

Row | SMILES | IC50 [1, 3] [nM] | IC50 [2, 4] [nM] | other results
3 | Cn1cc(-c2nc3cnccc3nc2N2CC(Oc3ccc(F)cc3F)C2)cn1 [Compound 327, 4-{2-[3-(2,4-difluorophenoxy)azetidin-1-yl]pyrido[3,4-b]pyrazin-3-yl}-1-methyl-1H-pyrazole] |  |  | IC50 ([1]; procedure of Example 24): 1000 to 30000 nM; IC50 ([2]; procedure of Example 24): 1000 to 30000 nM
4 | COc1cccc(-c2nc3c(nc2N2CCN(Cc4ccc(F)cc4Cl)CC2)CCN(C(C)=O)C3)n1 [Compound 205, 1-(2-{4-[(2-chloro-4-fluorophenyl)methyl]piperazin-1-yl}-3-(6-methoxypyridin-2-yl)-5H,6H,7H,8H-pyrido[3,4-b]pyrazin-6-yl)ethan-1-one] | 100 to 1000 | 1000 to 30000 | 
5 | O=C1CC(N2CCc3nc(N4CCC(Oc5ccc(F)cc5F)CC4)c(-c4cn[nH]c4)nc3C2)CN1 (stereo not shown) [Compound 229, 4-{2-[4-(2,4-difluorophenoxy)piperidin-1-yl]-3-(1H-pyrazol-4-yl)-5H,6H,7H,8H-pyrido[3,4-b]pyrazin-6-yl}pyrrolidin-2-one] | 1000 to 30000 | 1000 to 30000 | 
6 | CC(=O)N1CCc2nc(N3CCC(Oc4ccc(F)cc4F)CC3)c(-c3cccc(OC(F)(F)F)n3)nc2C1 [Compound 223, 1-{2-[4-(2,4-difluorophenoxy)piperidin-1-yl]-3-[6-(trifluoromethoxy)pyridin-2-yl]-5H,6H,7H,8H-pyrido[3,4-b]pyrazin-6-yl}ethan-1-one] | 100 to 1000 | 1000 to 30000 | 
7 | CC(=O)N1CC=C(c2nc3c(nc2N2CCC(Oc4ccc(F)cc4F)CC2)CCN(C(C)=O)C3)CC1 [Compound 69, 1-(3-(1-acetyl-1,2,3,6-tetrahydropyridin-4-yl)-2-(4-(2,4-difluorophenoxy)piperidin-1-yl)-7,8-dihydropyrido[3,4-b]pyrazin-6(5H)-yl)ethan-1-one] | 1000 to 30000 | 1000 to 30000 | 
8 | CC(=O)N1CCc2nc(N3CCC(Oc4ccc(F)cc4F)CC3)c(C3CCOCC3)nc2C1 [Compound 236, 1-{2-[4-(2,4-difluorophenoxy)piperidin-1-yl]-3-(oxan-4-yl)-5H,6H,7H,8H-pyrido[3,4-b]pyrazin-6-yl}ethan-1-one] | 1000 to 30000 | 1000 to 30000 | 
9 | CNC(=O)C(C)N1CCc2nc(N3CCC(Oc4ccc(F)cc4F)CC3)c(-c3cnn(C4CCCCO4)c3)nc2C1 (stereo not shown) [Compound 146, 2-{2-[4-(2,4-difluorophenoxy)piperidin-1-yl]-3-[1-(oxan-2-yl)-1H-pyrazol-4-yl]-5H,6H,7H,8H-pyrido[3,4-b]pyrazin-6-yl}-N-methylpropanamide] | 1000 to 30000 | 1000 to 30000 | 
10 | CC(=O)N1CCc2nc(N3CCC(Oc4ccc(F)cc4F)CC3)c(-c3cccc(C#N)n3)nc2C1 [Compound 2, 6-{6-acetyl-2-[4-(2,4-difluorophenoxy)piperidin-1-yl]-5H,6H,7H,8H-pyrido[3,4-b]pyrazin-3-yl}pyridine-2-carbonitrile] |  |  | IC50 [1, 5]: 100 to 1000 nM; IC50 [2, 5]: 1000 to 30000 nM
11 | CC(=O)N1CCc2nc(C3=CCC(Oc4ccc(F)cc4F)CC3)c(-c3ncco3)nc2C1 (stereo not shown) [Compound 303, 1-{2-[4-(2,4-difluorophenoxy)cyclohex-1-en-1-yl]-3-(1,3-oxazol-2-yl)-5H,6H,7H,8H-pyrido[3,4-b]pyrazin-6-yl}ethan-1-one] |  |  | IC50 ([1]; procedure of Example 24): ≥ 30000 nM; IC50 ([2]; procedure of Example 24): ≥ 30000 nM
